Test results as given in ChEMBL document CHEMBL1132042, “Macrocyclic hydroxamate inhibitors of matrix metalloproteinases and TNF-alpha production” (Bioorg Med Chem Lett, 1999).

Tests used:
Homo sapiens = species: Homo sapiens; experiment: Compound was tested for its ability to suppress the release of TNF-alpha (TNF-WBA) in human whole blood after stimulation with LPS.; assay type: functional, organism-based
Interstitial collagenase = target: T1, Interstitial collagenase (Homo sapiens, UniProt P03956); experiment: Inhibition of MMP-1 (human fibroblast collagenase)
T1 sequence (P03956 whole entry): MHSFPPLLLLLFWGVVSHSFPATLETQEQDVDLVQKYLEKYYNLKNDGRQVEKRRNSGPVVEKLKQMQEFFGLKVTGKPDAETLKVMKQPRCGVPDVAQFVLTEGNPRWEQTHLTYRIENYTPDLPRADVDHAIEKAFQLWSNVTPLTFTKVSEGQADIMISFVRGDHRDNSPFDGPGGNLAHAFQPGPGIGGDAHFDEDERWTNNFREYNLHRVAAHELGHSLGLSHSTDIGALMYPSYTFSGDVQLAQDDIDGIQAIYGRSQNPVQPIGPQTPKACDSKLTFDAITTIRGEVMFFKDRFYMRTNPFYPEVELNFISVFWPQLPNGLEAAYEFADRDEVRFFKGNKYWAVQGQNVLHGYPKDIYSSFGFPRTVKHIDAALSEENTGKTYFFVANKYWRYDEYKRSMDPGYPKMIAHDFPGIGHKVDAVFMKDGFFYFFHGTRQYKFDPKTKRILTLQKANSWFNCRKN

[1] = target: Matrix metalloproteinase-9 (Homo sapiens, UniProt P14780); experiment: Inhibition of MMP-9 (matrix metalloprotease-9, gelatinase B)
Stromelysin-1 = Stromelysin-1 (Homo sapiens, UniProt P08254); experiment: Inhibition of MMP-3 (human fibroblast stromelysin)
Chain of Stromelysin-1 (P08254 whole entry): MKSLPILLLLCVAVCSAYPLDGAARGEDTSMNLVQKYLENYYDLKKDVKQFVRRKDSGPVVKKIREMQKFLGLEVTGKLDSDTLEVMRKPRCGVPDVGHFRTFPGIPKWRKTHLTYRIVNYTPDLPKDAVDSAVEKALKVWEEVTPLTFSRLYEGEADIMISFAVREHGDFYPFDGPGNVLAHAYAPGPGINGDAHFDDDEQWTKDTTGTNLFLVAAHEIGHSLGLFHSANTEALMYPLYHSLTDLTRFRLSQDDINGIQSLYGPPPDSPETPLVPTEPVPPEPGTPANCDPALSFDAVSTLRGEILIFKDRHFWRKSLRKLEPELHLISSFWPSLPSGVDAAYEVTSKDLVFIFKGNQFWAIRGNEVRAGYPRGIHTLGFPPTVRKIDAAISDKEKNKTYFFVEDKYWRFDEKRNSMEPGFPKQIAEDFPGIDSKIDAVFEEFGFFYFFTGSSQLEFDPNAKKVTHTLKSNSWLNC

Chain of Matrix metalloproteinase-9 (P14780 whole entry): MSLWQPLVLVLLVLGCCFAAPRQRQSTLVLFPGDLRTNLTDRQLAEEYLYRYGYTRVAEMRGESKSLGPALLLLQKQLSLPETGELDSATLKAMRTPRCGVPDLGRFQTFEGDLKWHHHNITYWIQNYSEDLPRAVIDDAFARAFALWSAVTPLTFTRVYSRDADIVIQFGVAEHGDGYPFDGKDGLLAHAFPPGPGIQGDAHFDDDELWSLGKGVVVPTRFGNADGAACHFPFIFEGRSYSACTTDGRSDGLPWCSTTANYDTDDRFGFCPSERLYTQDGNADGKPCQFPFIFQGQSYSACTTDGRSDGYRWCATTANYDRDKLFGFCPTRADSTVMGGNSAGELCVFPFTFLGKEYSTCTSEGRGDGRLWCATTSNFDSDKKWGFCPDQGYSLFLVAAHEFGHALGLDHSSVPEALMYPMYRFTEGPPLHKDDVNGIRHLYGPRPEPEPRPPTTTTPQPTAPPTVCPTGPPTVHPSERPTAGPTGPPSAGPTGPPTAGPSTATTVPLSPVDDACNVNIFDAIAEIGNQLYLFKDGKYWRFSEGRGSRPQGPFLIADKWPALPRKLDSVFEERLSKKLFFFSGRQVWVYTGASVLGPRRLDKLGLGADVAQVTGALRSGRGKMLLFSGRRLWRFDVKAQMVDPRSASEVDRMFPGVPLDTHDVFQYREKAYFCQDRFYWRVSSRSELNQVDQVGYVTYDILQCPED

SMILES | IC50 (Homo sapiens) [nM] | Ki (Interstitial collagenase) [nM] | Ki [1] [nM] | Ki (Stromelysin-1) [nM]
CNC(=O)[C@@H]1CCCCN(C(=O)OC(C)(C)C)CCC[C@H](C(=O)NO)[C@@H](CC(C)C)C(=O)N1 | 1400 | < 1 | < 1 | 3
CNC(=O)[C@@H]1CCCCNCCC[C@H](C(=O)NO)[C@@H](CC(C)C)C(=O)N1 | 2700 | < 1 | 12.8 | 
CNC(=O)[C@@H]1CCCCN(S(=O)(=O)c2c(C)cc(C)cc2C)CCC[C@H](C(=O)NO)[C@@H](CC(C)C)C(=O)N1 | 1600 | 2.3 | < 1 | 15

More lines, now with the values ahead:

IC50 (Homo sapiens) [nM] | Ki (Interstitial collagenase) [nM] | Ki [1] [nM] | Ki (Stromelysin-1) [nM] | SMILES
1400 | < 1 | 2.7 | 12 | CNC(=O)[C@@H]1CCCCN(S(=O)(=O)c2cn(C)cn2)CCC[C@H](C(=O)NO)[C@@H](CC(C)C)C(=O)N1
950 | < 1 | 1.6 | 99 | CNC(=O)[C@@H]1CCCCN(S(=O)(=O)c2ccc(N)cc2)CCC[C@H](C(=O)NO)[C@@H](CC(C)C)C(=O)N1
1300 | 4 | < 1 | 118 | CNC(=O)[C@@H]1CCCCN(S(=O)(=O)C(F)(F)F)CCC[C@H](C(=O)NO)[C@@H](CC(C)C)C(=O)N1
1300 | < 1 | < 1 | 3.4 | CNC(=O)[C@@H]1CCCCN(S(=O)(=O)c2ccccc2)CCC[C@H](C(=O)NO)[C@@H](CC(C)C)C(=O)N1
